{"source": "patent US5037637A", "about": "“Antibacterial antiplaque, anticalculus oral composition” (priority 1989, dated 1991)", "key": {"[1]": {"test": "Human clinical tests, reduction of plaque formation", "type": "in vivo"}, "[2]": {"system": "four dental plaque organisms", "test": "Antibacterial effect on the four dental plaque organisms (summary in words)", "type": "cell-based", "settings": "solutions without TCHE", "experimental": "Slurries and solutions described below are prepared to determine effectiveness in terms of minimum inhibitory concentration (MIC) of various antibacterial agents against a variety of oral bacterial organisms implicated in formation of plaque and leading to gingivitis on dental surfaces. Soft plaque contains about 1.7×10^11 organism/gm. (net weight). The antibacterial agents are admixed with anionic materials, particularly anionic surface active agent often commonly employed in oral compositions and polyphosphate anticalculus agent.\nMinimum inhibitory concentration (MIC) of antibacterial agent is used to evaluate the efficacy of the agent in vitro. […] The smaller the MIC value the greater is the efficacy of the antibacterial agent to inhibit the growth of the bacteria. The in vitro MIC data is related to the efficacy of the dentifrice in vivo since retention and release of antibacterial agent into the oral cavity after toothbrushing is in the range of mcg/ml."}, "[3]": {"test": "Adsorption of TCHE to saliva coated tooth mineral hydroxyapatite", "set-up": "species or system human", "settings": "for % of TCHE Adsorbed to Coated HA: 37°, 3 hours", "experimental": "The adsorption to and release from tooth minerals for antiplaque/ antitartar efficacy of agents is assessed by adsorption of antibacterial agent to saliva coated tooth mineral hydroxyapatite in the presence and the absence of pyrophosphate (soluble tetrasodium pyrophosphate)/Gantrez/NaF.\n200 mg. of hydroxyapatite (HA) is treated with human saliva for 2 hours. The excess saliva is washed with a buffer and saliva coated HA is used for adsorption studies. Various concentrations of TCHE in SLS or in SLS/pyrophosphate/Gantrez/NaF are mixed with the coated HA and incubated at 37° for 3 hours under continuous agitation. At the end of incubation period, the mixtures are centrifuged, HA separated and the amounts of TCHE adsorbed determined by estimating TCHE in the supernatant at […] in a Gilford spectrophotometer. The amounts adsorbed are calculated by the difference between the amount added and the amount left in the supernatant after the incubation with coated HA. The table below summarizes the data."}, "Bacteriodes gingivalis": {"system": "Bacteriodes gingivalis", "test": "Antibacterial activity of dentifrice extracts, inhibition of growth", "type": "cell-based", "experimental": "The dentifrice described in Example 3A is compared with the same composition except without any TCHE and with added 0.50 parts of water. Aqueous extracts of each dentifrice are prepared as follows: 50 ml of distilled water is added to 1.0 gm of each dentifrice, mixed well for a couple of hours with stirring bar and centrifuged, after which the supernatant is collected as aqueous extract. Antibacterial activity of the dentifrice extracts are evaluated on Bacteriodes gingivalis."}}, "data": [{"smiles": "CC(C)(C)CC(C)(C)c1ccc(OCCOCC[N+](C)(C)Cc2ccccc2)cc1", "note": "[BTC, benzthonium chloride]", "values": [{"measurement": "reducing plaque formation", "setting": "[1]; 0.075% BTC and 1% pyrophosphate dissolved in water", "value": "is not"}, {"measurement": "reducing plaque formation", "setting": "[1]; 0.075% BTC dissolved in water", "value": "effective in reducing plaque formation"}]}, {"smiles": "[H]/N=C(\\N/C(=N/[H])NCCCCCCNC(=N)NC(=N)Nc1ccc(Cl)cc1)Nc1ccc(Cl)cc1", "note": "[CH, chlorhexidine digluconate]", "values": [{"measurement": "reducing plaque formation", "setting": "[1]; 0.1% CH and 1% sodium N-lauroyl sarcosinate dissolved in water", "value": "is not"}, {"measurement": "reducing plaque formation", "setting": "[1]; 0.1% CH dissolved in water", "value": "effective in reducing plaque formation"}]}, {"smiles": "CCCCCCCCCCCCOS(=O)(=O)[O-].[Na+]", "note": "[SLS, sodium lauryl sulfate]", "values": [{"measurement": "antibacterial effect", "setting": "[2]", "value": "ineffective"}]}, {"smiles": "Oc1cc(Cl)ccc1Oc1ccc(Cl)cc1Cl", "note": "[TCHE, 2,4,4'-trichloro-2'-hydroxydiphenyl ether]", "values": [{"measurement": "% of TCHE Adsorbed to Coated HA", "setting": "[3]; 0.005% TCHE in 1% SLS, 0.5% Gantrez, 2% pyrophosphate/0.24% NaF", "value": 80, "unit": "%"}, {"measurement": "% of TCHE Adsorbed to Coated HA", "setting": "[3]; 0.005% TCHE in 1% SLS", "value": 80, "unit": "%"}, {"measurement": "% of TCHE Adsorbed to Coated HA", "setting": "[3]; 0.01% TCHE in 1% SLS, 0.5% Gantrez, 2% pyrophosphate/0.24% NaF", "value": 85, "unit": "%"}, {"measurement": "% of TCHE Adsorbed to Coated HA", "setting": "[3]; 0.01% TCHE in 1% SLS", "value": 85, "unit": "%"}, {"measurement": "% of TCHE Adsorbed to Coated HA", "setting": "[3]; 0.015% TCHE in 1% SLS, 0.5% Gantrez, 2% pyrophosphate/0.24% NaF", "value": 86, "unit": "%"}, {"measurement": "% of TCHE Adsorbed to Coated HA", "setting": "[3]; 0.015% TCHE in 1% SLS", "value": 85, "unit": "%"}, {"measurement": "% of TCHE Adsorbed to Coated HA", "setting": "[3]; 0.02% TCHE in 1% SLS, 0.5% Gantrez, 2% pyrophosphate/0.24% NaF", "value": 87, "unit": "%"}, {"measurement": "% of TCHE Adsorbed to Coated HA", "setting": "[3]; 0.02% TCHE in 1% SLS", "value": 88, "unit": "%"}, {"measurement": "effect of addition of pyrophosphate/Gantrez/NaF on adsorption of TCHE to saliva coated tooth minerals", "setting": "[3]; with vs without pyrophosphate/Gantrez/NaF", "value": "does not impair adsorption"}, {"measurement": "compatibility in dentifrice composition containing anionic surfactant plus pyrophosphate with Gantrez and NaF", "setting": "Bacteriodes gingivalis; from growth inhibition by dentifrice extracts", "value": "compatible"}, {"measurement": "inhibition at 5 µg/mL", "setting": "Bacteriodes gingivalis; read-out: Inhibition of Growth of Bacteriodes Gingivalis", "value": 100, "unit": "%"}]}]}
